Where two headings read alike, the source gives them in different places.
Legend:
[1] = Cytotoxicity in RAW 264.7 cells (alamarBlue, 72 h); conditions: mouse
Protocol: (§1) To this end, we calculated SIs from 16 preselected results from the ex vivo system. With this aim, dose–response curves were performed in duplicate across at least three independent experiments using RAW 264.7 mouse macrophages (as a model of host cells harboring amastigotes) and HepG2 (as a model for assessing systemic toxicity).
(§2) To evaluate the safety of the selected compounds, two cell lines were employed: RAW 264.7 (a mouse macrophage-derived cell line) and HepG2 (a human hepatoma cell line). Furthermore, to determine the intestinal tolerance relevant to potential oral administration, mouse intestinal organoids were prepared.
(§3) RAW 264.7 and HepG2 were routinely cultured under standard conditions. RAW 264.7 cells were maintained in RPMI medium (Gibco) supplemented with, 25 mM HEPES, 24 mM NaHCO3, 2 mM L-glutamine, mixture of antibiotics and 10% FBS. HepG2 cells were cultured in DMEM/F-12 (Gibco) and supplemented 10% of FBS. For cytotoxicity assays, 10,000 cells per well were seeded into 96-well plates and incubated overnight at 37 °C with 5% of CO2. Subsequently, 2-fold serial dilutions of the compounds were added and incubated for 72 h. Cell viability using the alamarBlue™ assay according to the manufacturer’s instructions, and fluorescence was measured with a Varioskan™ LUX microplate reader (ThermoFisher Scientific, Waltham, MA, USA). Non-linear regression analyses were performed using SigmaPlot^TM software (version 10.0) to calculate CC50. Data were obtained from at least three independent experiments performed in duplicate.

[2] = test system: L. donovani IRFP axenic amastigotes; experiment: Primary single-concentration screening on axenic amastigotes, growth inhibition at 72 h; type: cell-based, Leishmania donovani; conditions: for inhibition at 1 µM / inhibition at 10 µM: Leishmania donovani
[3] = Cytotoxicity in HepG2 cells (alamarBlue, 72 h); conditions: human
Protocol: as §1, §2, §3

[4] = test system: L. donovani IRFP axenic amastigotes; experiment: Dose-response assay on axenic amastigotes; type: cell-based, Leishmania donovani; conditions: Leishmania donovani
Protocol: The objective of the present study was to identify new antileishmanial drug candidates by screening a commercial library of plant-derived alkaloids using a platform based on axenic amastigotes of L. donovani IRFP—the causative agent of VL—genetically modified to emit infrared fluorescence during their viable stage (hereafter referred to as L. donovani IRFP). To this end, single-dose assays at 10 μM and 1 μM, as well as dose–response assays, were performed. Compounds showing significant activity in the initial screening were subsequently clustered according to chemical structure using the DataWarrior tool, and representative compounds were further evaluated in dose response assays against axenic amastigotes.
Female Balb/c mice aged from 6 to 8 weeks were intraperitoneally inoculated with 1.5 × 10^9 infective L. donovani IRFP metacyclic promastigotes. Between 8 and 12 weeks after infection, mice were humanely euthanised and bone marrow was collected from the femurs and tibias of both hind limbs. The bones were cut at both ends, and prewarmed PBS was flushed through the medullary cavity using a syringe fitted with a 27G needle, to extract the bone marrow cells. The resulting cell suspension was filtered through a 100 µm cell strainer and centrifuged at 2500 rpm for 10 min at room temperature. To obtain free amastigotes, the pelleted cells were resuspended within a 75 mL ventilated flask in amastigote culture medium (15 mM KCl; 136 mM KH2PO4; 10 mM K2HPO4.3H2O; 0.5 mM MgSO4.7 H2O; 24 mM NaHCO3; 22 mM glucose; 1 mM glutamine, 1x RPMI 1640 vitamin mix (Sigma-Aldrich, Merck, Darmstadt, Germany), 10 mM folic acid, […], 1x RPMI amino acid mix (Sigma-Aldrich, Merck, Darmstadt, Germany), […], antibiotic mixture, 25 mM MES, 10% FBS (Gibco, ThermoFisher Scientific, Waltham, MA, USA) and incubated at 37 °C in a humidified atmosphere containing 5% CO2 [46].
The efficacy of the selected compounds was assessed by measuring near-infrared fluorescence (700 nm) using an Odyssey Infrared Imaging System (Li-Cor, Lincoln, NE, USA) following the previously described protocols.

[5] = test system: L. donovani IRFP intramacrophagic amastigotes; experiment: Dose-response assay on ex vivo infected splenic explants (intramacrophagic amastigotes); type: cell-based, Leishmania donovani; conditions: Leishmania donovani, Splenocyte, read-out: EC50 Intramacrophagic Amastigotes
[6] = 1 µM, experiment 1, 72 h, axenic amastigotes, read-out: Growth Inhibition (%) at 72h, 1 µM_Exp1
[7] = 1 µM, experiment 2, 72 h, axenic amastigotes, read-out: Growth Inhibition (%) at 72h, 1 µM_Exp2
[8] = 10 µM, experiment 1, 72 h, axenic amastigotes, read-out: Growth Inhibition (%) at 72h, 10 µM_Exp1
[9] = 10 µM, experiment 2, 72 h, axenic amastigotes, read-out: Growth Inhibition (%) at 72h, 10 µM_Exp2
[10] = primary cultures of infected mouse splenocytes
[11] = 1 µM, experiment 1, 72 h, axenic amastigotes
[12] = 1 µM, experiment 2, 72 h, axenic amastigotes
[13] = 10 µM, experiment 1, 72 h, axenic amastigotes
[14] = 10 µM, experiment 2, 72 h, axenic amastigotes

Compound | inhibition at 1 µM [2, 6] [%] | inhibition at 1 µM [2, 7] [%] | inhibition at 10 µM [2, 8] [%] | inhibition at 10 µM [2, 9] [%] | Growth Inhibition (%) at 72h, 1 µM_Exp1 [2, 11] [%] | Growth Inhibition (%) at 72h, 1 µM_Exp2 [2, 12] [%] | Growth Inhibition (%) at 72h, 10 µM_Exp1 [2, 13] [%] | Growth Inhibition (%) at 72h, 10 µM_Exp2 [2, 14] [%] | also measured
COc1cc2c3c(cc4ccccc4c3c1OC)N(C)CC2 [Dehydronuciferine] | 86.7 | 77.8 | 100 | 100 |  |  |  |  | CC50 at 72 h ([1]; RAW 264.7 macrophage cells): 18.6 ± 1.11 µM; CC50 at 72 h ([3]; HepG2 hepatoma cells): 25.5 ± 5.43 µM; IC50 [4]: 1.23 ± 0.03 µM; EC50 [5, 10]: > 50 µM
COc1ccc2c(c1OC)CN(C)c1c-2ccc2cc3c(cc12)OCO3 [Dihydrochelerythrine] | 100 | 97.9 | 100 | 100 |  |  |  |  | CC50 at 72 h ([1]; RAW 264.7 macrophage cells): > 50 µM; CC50 at 72 h ([3]; HepG2 hepatoma cells): > 50 µM; IC50 [4]: 0.06 ± 0.005 µM; EC50 [5, 10]: 10.5 ± 0.75 µM
CN1Cc2c(ccc3c2OCO3)-c2ccc3cc4c(cc3c21)OCO4 [Dihydrosanguinarine] | 99.3 | 97.6 | 99.8 | 99.7 |  |  |  |  | CC50 at 72 h [1]: 46.5 ± 10.1 µM; CC50 at 72 h [3]: > 40 µM; IC50 [4]: 0.19 ± 0.01 µM; EC50 ([5]; in Mus musculus): 8.55 ± 1.33 µM
CN1[C@@H](CC(=O)c2ccccc2)CCC[C@H]1CC(=O)c1ccccc1 [Lobelanine] |  |  |  |  | -73.70 | 10.47 | 75.56 | 20.66 | 
O=C1C=CC(=O)N1 [Maleimide] | 101 | 101 | 101 | 101 |  |  |  |  | 
CN1C(=O)/C(=C2/C(=O)Nc3ccccc32)c2ccccc21 [Meisoindigo] | 100 | 100 | 100 | 100 |  |  |  |  | CC50 at 72 h ([1]; RAW 264.7 macrophage cells): 14.9 ± 0.9 µM; CC50 at 72 h ([3]; HepG2 hepatoma cells): 20.4 ± 1.4 µM; IC50 [4]: 1.53 ± 0.21 µM; EC50 [5, 10]: 9.3 ± 0.52 µM
CCCCC/C=C\C/C=C\CCCCCCCC(=O)NCc1ccccc1 [N-Benzyllinoleamide] |  |  |  |  | 23.06 | -24.6 | 99.77 | 99.86 | 
CC/C=C\C/C=C\C/C=C\CCCCCCCC(=O)NCc1ccccc1 [N-Benzyllinolenamide] |  |  |  |  | -37.93 | -43.83 | 99.95 | 100.85 | 
O=C1N[C@@H]2C(=C[C@H](O)[C@@H](O)[C@H]2O)c2cc3c(c(O)c21)OCO3 [Narciclasine] |  |  |  |  | -12.26 | -86.55 | 84.56 | 93.45 | 
CC[C@@H]1[C@H]2CCCCN3[C@H]2[C@@H](C[C@H]3[C@@H]2C[C@H](C)C(=O)O2)[C@H]2[C@@H]1OC(=O)[C@H]2C [Neotuberostemonine] | 38 | 69.7 | 101 | 101 |  |  |  |  | CC50 at 72 h [1]: 39.1 ± 2.2 µM; CC50 at 72 h [3]: > 50 µM; IC50 [4]: 1.27 ± 0.06 µM; EC50 [5, 10]: > 25 µM
CCCCCCCCC(=O)NCc1ccc(O)c(OC)c1 [Nonivamide] | 10.9 | -30.7 | 101 | 93.3 |  |  |  |  | 
COc1cc(CNC(=O)CCCCCC(C)C)ccc1O [Nordihydrocapsaicin] |  |  |  |  |  |  |  |  | Growth Inhibition (%) at 72h, 1 µM_Exp1 [2]: 1.91%; Growth Inhibition (%) at 72h, 1 µM_Exp2 [2]: -21.65%; Growth Inhibition (%) at 72h, 10 µM_Exp1 [2]: 90.15%; Growth Inhibition (%) at 72h, 10 µM_Exp2 [2]: 70.24%
CC(C)(O)[C@H]1O[C@H]2CC[C@@]3(C)[C@@](O)(CC[C@H]4Cc5c([nH]c6ccccc56)[C@@]43C)C2=CC1=O [Paxilline] | 6.12 | 19.6 | 98.6 | 99.1 |  |  |  |  | 
O=C(O)c1cccc2nc3ccccc3nc12 [Phenazine-1-carboxylic acid] | -12.2 | -87 | 90.8 | 87.8 |  |  |  |  | 
O=C(/C=C/C=C/c1ccc2c(c1)OCO2)N1CCCCC1 [Piperine] | 38.3 | 17.5 | -7.31 | 75.2 |  |  |  |  | 
COc1cc(/C=C/C(=O)N2CCC=CC2=O)cc(OC)c1OC [Piperlongumine] |  |  |  |  | 99.95 | 98.63 | 100.21 | 100.05 | 
Cc1ncc(CO)c(CO)c1O.Cl [Pyridoxine (hydrochloride)] |  |  |  |  | 6.77 | -86.02 | 79.17 | 65.78 | 
COc1c2ccoc2nc2c(O)cccc12 [Robustine] | 48.3 | 1.86 | 90.6 | 33.3 |  |  |  |  | 
CC[C@@]1(O)C(=O)OCc2c1cc1n(c2=O)Cc2cc3c([N+](=O)[O-])cccc3nc2-1 [Rubitecan] | 69.8 | 36.9 | 94.4 | 89.4 |  |  |  |  | 
C[C@@H]1CC[C@@]2(NC1)O[C@H]1C[C@H]3[C@@H]4CC=C5C[C@@H](O[C@@H]6O[C@H](CO)[C@@H](O[C@@H]7O[C@@H](C)[C@H](O)[C@@H](O)[C@H]7O)[C@H](O)[C@H]6O[C@@H]6O[C@@H](C)[C@H](O)[C@@H](O)[C@H]6O)CC[C@]5(C)[C@H]4CC[C@]3(C)[C@H]1[C@@H]2C [Solamargine] | 62.8 | 11.2 | 93.6 | 94.3 |  |  |  |  | 
CC[C@]12C=CCN3CC[C@]4(C(=C(C(=O)OC)C1)Nc1ccccc14)[C@@H]32 [Tabersonine] | -26.2 | -7.79 | 98 | 61.5 |  |  |  |  | 
C[C@H]1CC[C@]2(NC1)O[C@H]1C[C@H]3[C@@H]4CC[C@H]5C[C@@H](O)CC[C@]5(C)[C@H]4CC[C@]3(C)[C@H]1[C@@H]2C [Tomatidine] | 11.2 | 18.6 | 66.9 | 75.1 |  |  |  |  | 
O=C1c2ccccc2-n2c1nc1ccccc1c2=O [Tryptanthrin] | 13.1 | 23.4 | 84.1 | 75 |  |  |  |  | 
CC[C@]1(O)C[C@@H]2CN(CCc3c([nH]c4ccccc34)[C@@](C(=O)OC)(c3cc4c(cc3OC)N(C)[C@H]3[C@@](O)(C(=O)OC)[C@H](OC(C)=O)[C@]5(CC)C=CCN6CC[C@]43[C@@H]65)C2)C1.O=S(=O)(O)O [Vinblastine (sulfate)] |  |  |  |  | -20.42 | -25.23 | 99.34 | 78.77 | 
Evocarpine |  |  |  |  | -18.62 | -35.10 | 100.35 | 98.71 | 
Evodiamine |  |  |  |  | -42.64 | 25.77 | 94.67 | 96.80 | 
